In article PMC11330772, “Unveiling the kinetic versatility of aryl-alcohol oxidases with different electron acceptors” (Frontiers in Bioengineering and Biotechnology, 2024):
Like-named read-outs stand apart in the source and are kept apart here.

Legend:
PeAAO [1] = molecular target: T1, PeAAO (Pleurotus eryngii, UniProt O94219); assay: Redox state of the enzyme during turnover (stopped-flow); format: biochemical; settings: BQ as electron acceptor, regardless of the alcohol substrate, anaerobic, pH 6.0, 25 °C
T1 sequence (O94219 entry or part of it): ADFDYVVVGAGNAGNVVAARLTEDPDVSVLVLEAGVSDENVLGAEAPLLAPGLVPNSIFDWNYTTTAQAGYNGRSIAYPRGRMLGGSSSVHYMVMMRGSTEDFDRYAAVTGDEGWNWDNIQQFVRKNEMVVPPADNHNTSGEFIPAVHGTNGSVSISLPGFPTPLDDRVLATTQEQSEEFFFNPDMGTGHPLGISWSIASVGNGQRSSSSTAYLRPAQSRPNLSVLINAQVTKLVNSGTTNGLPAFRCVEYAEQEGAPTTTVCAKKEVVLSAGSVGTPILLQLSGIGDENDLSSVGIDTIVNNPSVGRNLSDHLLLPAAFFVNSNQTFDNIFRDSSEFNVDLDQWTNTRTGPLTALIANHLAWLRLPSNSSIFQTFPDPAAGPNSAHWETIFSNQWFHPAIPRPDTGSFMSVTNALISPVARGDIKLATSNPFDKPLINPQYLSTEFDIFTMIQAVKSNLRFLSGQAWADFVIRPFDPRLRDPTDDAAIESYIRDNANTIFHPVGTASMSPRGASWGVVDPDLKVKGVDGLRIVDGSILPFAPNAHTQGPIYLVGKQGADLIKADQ
Description: Experiments with O2 were performed with the alcohol under air-saturated conditions, while in the case of BQ, the alcohol was mixed with saturating concentration of BQ (300 µM) under anaerobic conditions. The spectral evolution of the enzymes during redox turnover was recorded between 350 and 700 nm.

PeAAO [2] = molecular target: T1, PeAAO; assay: Steady-state bi-substrate kinetics of alcohol oxidation; format: biochemical; settings: alcohol substrate 3-Cl-4-methoxybenzyl alcohol, 50 mM phosphate, pH 6.0, 25 °C
Description: (§1) Bi-substrate kinetics were analyzed by concurrently varying the concentration of the aforementioned alcohols and electron acceptors. Oxygen assays were carried out in a screw-cap cuvette where the alcohol was equilibrated with the desired concentration of O2 by bubbling with the appropriate O2/N2 gas mixture (4%, 10%, 21%, 44%, and 100% O2) for 10 min. Alcohol oxidation was initiated by the addition of the enzyme and followed at 285 nm for 4-methoxybenzaldehyde production and 295 nm in the case of 3-Cl-4-methoxybenzaldehyde (Δε285 = 16,950 M^−1cm^−1 and Δε295 = 15,000 M^−1cm^−1, respectively) ([Ferreira et al., 2005]). […]. BQ solutions were prepared immediately prior to use and protected from the light to avoid photodegradation.
(§2) The initial rates for bi-substrate kinetics were fitted to Eq. 1 or Eq. 2, which describe sequential and ping-pong kinetic mechanisms, respectively. […]

BaAAO [3] = molecular target: T2, BaAAO (Bjerkandera adusta, UniProt A0ABF7PQ87); assay: as above; format: biochemical; settings: BaAAO, alcohol substrate 3-Cl-4-methoxybenzyl alcohol; 50 mM phosphate, pH 6.0, 25 °C
T2 sequence (A0ABF7PQ87 entry or part of it): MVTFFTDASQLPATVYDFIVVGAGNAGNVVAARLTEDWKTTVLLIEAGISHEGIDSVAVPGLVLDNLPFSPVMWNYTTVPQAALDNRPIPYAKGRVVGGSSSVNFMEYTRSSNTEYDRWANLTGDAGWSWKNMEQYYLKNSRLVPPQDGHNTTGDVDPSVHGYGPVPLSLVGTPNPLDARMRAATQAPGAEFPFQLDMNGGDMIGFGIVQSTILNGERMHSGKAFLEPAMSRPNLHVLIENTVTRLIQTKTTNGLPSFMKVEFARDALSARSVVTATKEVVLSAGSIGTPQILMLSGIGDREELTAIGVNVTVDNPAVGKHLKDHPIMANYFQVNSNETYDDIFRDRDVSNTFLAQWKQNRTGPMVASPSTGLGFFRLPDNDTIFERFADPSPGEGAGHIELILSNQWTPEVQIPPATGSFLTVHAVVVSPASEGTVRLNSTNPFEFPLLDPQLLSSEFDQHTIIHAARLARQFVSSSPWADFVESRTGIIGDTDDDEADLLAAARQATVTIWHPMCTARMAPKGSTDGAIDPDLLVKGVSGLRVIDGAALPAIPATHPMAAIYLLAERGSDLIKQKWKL
Description: as §1, §2

PeAAO [4] = molecular target: T1, PeAAO; assay: Stopped-flow oxidative half-reaction (flavin reoxidation by O2 or BQ); settings: for second phase of reoxidation (k ox B→C): two-step model
BaAAO [5] = molecular target: T2, BaAAO; assay: Redox state of the enzyme during turnover (stopped-flow); format: biochemical; settings: BQ as electron acceptor, both alcohols, anaerobic, pH 6.0, 25 °C
BaAAO [6] = molecular target: T2, BaAAO; parameters: method as in Ferreira et al. (2023); settings: alcohol substrate 4-methoxybenzyl alcohol, 50 mM phosphate, pH 6.0, 25 °C, ref Ferreira et al. (2023); cited from earlier work
PeAAO [7] = molecular target: T1, PeAAO; assay: Isothermal titration calorimetry with BQ; format: binding
Description: (§3) The interaction parameters of the enzymes with BQ were determined using an Auto-ITC200 high-sensitivity microcalorimeter (MicroCal, Malvern-Panalytical) thermostatted at 25 °C. Enzyme solutions (∼6 μM for BaAAO and 15 μM for PeAAO) were titrated with BQ (∼50 µM for BaAAO and ∼100 μM for PeAAO) in 50 mM Tris/HCl, pH 7.0. Up to 19 injections of 2 µL were programmed with enough time spacing for the signal to recover the baseline. The association constant (K a), the enthalpy change (ΔH) and the apparent stoichiometry (n) were estimated through non-linear regression of the experimental data using a model for one binding site implemented in Origin (Origin 7.0, OriginLab). The dissociation constant (K d), the Gibbs energy change (ΔG), and the entropy change (–TΔS) were obtained from basic thermodynamic relationships.

BaAAO [8] = molecular target: T2, BaAAO; assay: Isothermal titration calorimetry with BQ; format: binding
Description: as §3

PeAAO [9] = molecular target: T1, PeAAO; parameters: method as in Ferreira et al. (2023); settings: alcohol substrate 4-methoxybenzyl alcohol, 50 mM phosphate, pH 6.0, 25 °C, ref Ferreira et al. (2023); cited from earlier work

O=C1C=CC(=O)C=C1 [BQ, 1,4-benzoquinone]
enzyme in the oxidized state during turnover (PeAAO [1]): 85%–92% | k cat/K m(acceptor) (PeAAO [2]): 722000 ± 64000 M⁻¹ s⁻¹ | k cat/K m(acceptor) (BaAAO [3]): 353000 ± 65000 M⁻¹ s⁻¹ | reverse rate constant (k rev), y-axis intercept of reoxidation (PeAAO [4]; PeAAO): 55 s⁻¹ | second phase of reoxidation (k ox B→C) (PeAAO [4]; PeAAO reoxidized with 50 µM of BQ): 5 to 10 s⁻¹ | second phase of reoxidation (k ox B→C) (PeAAO [4]; PeAAO reoxidized with 100 µM of BQ): 15 to 20 s⁻¹ | first phase share of the total amplitude of reoxidation (PeAAO [4]; PeAAO, 50 µM of BQ): more than 50% | first phase share of the total amplitude of reoxidation (PeAAO [4]; PeAAO, 100 µM of BQ): > 85% | enzyme in the oxidized state during turnover (BaAAO [5]): ~90% | k cat/K m(acceptor) (BaAAO [6]): 450000 ± 70000 M⁻¹ s⁻¹ | Kd (PeAAO [7]): 27.1 µM | ΔH (PeAAO [7]; PeAAO, ITC, 25 °C, 50 mM Tris/HCl, pH 7.0, error ±0.4): -25.1 kcal/mol | ΔG (PeAAO [7]; PeAAO, ITC, 25 °C, 50 mM Tris/HCl, pH 7.0, from K d): -6.2 kcal/mol | –TΔS (PeAAO [7]; PeAAO, ITC, 25 °C, 50 mM Tris/HCl, pH 7.0, –TΔS = ΔG–ΔH): 18.9 kcal/mol | Kd (BaAAO [8]): 0.05 µM | K d of alcohols higher than K d of BQ (BaAAO [8]; BaAAO): ≤ 15,000 fold | ΔH (BaAAO [8]; BaAAO, ITC, 25 °C, 50 mM Tris/HCl, pH 7.0, error ±0.4): -21.4 kcal/mol | ΔG (BaAAO [8]; BaAAO, ITC, 25 °C, 50 mM Tris/HCl, pH 7.0, from K d): -9.9 kcal/mol | –TΔS (BaAAO [8]; BaAAO, ITC, 25 °C, 50 mM Tris/HCl, pH 7.0, –TΔS = ΔG–ΔH): 11.5 kcal/mol | k cat/K m(acceptor) (PeAAO [9]): 1,025 ± 154 s^−1mM^−1
